Source: ChEMBL document CHEMBL1154976 (Bioorg Med Chem Lett, 2010)

Experiments:
Homo sapiens [1] = species: Homo sapiens; assay: Selectivity ratio of Ki for human delta opioid receptor to Ki for human mu opioid receptor
[2] = target: Delta-type opioid receptor (Homo sapiens, UniProt P41143); assay: Displacement of [3H]naltrindole from human delta opioid receptor expressed in CHO cell membranes after 3 hrs by scintillation counting
Homo sapiens [3] = species: Homo sapiens; assay: Selectivity ratio of Ki for human delta opioid receptor to Ki for human kappa opioid receptor
[4] = target: Kappa-type opioid receptor (Homo sapiens, UniProt P41145); assay: Displacement of [3H]U69,593 from human kappa opioid receptor expressed in CHO cell membranes after 60 mins by scintillation counting
Chain of Kappa-type opioid receptor (P41145 whole entry): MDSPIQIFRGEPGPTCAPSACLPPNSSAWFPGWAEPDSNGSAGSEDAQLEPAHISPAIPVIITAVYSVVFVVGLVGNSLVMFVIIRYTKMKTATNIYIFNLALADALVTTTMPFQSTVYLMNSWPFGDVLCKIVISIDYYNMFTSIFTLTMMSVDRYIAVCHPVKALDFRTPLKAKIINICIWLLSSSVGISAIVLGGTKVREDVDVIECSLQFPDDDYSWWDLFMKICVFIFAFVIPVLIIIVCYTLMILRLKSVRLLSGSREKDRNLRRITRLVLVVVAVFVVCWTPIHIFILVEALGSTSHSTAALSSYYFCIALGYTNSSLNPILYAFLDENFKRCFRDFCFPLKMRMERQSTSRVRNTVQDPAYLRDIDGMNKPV

Mu-type opioid receptor = Mu-type opioid receptor (Homo sapiens, UniProt P35372); assay: Displacement of [3H]DAMGO from human mu opioid receptor expressed in CHO cell membranes after 60 mins by scintillation counting
Chain of Mu-type opioid receptor (P35372 whole entry): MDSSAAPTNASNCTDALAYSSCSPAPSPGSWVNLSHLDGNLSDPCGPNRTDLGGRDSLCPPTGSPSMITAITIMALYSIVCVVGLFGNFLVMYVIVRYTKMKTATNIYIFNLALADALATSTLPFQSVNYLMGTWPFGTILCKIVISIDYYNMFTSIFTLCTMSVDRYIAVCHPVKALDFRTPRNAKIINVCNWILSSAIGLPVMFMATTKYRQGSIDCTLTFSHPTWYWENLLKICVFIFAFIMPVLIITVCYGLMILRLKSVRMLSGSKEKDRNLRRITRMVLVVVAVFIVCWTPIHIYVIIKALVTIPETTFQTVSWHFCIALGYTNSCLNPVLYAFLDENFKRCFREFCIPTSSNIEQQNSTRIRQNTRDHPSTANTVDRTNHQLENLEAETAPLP

Homo sapiens [5] = species: Homo sapiens; assay: Selectivity ratio of Ki for human mu opioid receptor to Ki for human kappa opioid receptor
Homo sapiens [6] = species: Homo sapiens; assay: Selectivity ratio of Ki for human kappa opioid receptor to Ki for human mu opioid receptor

Chain of Delta-type opioid receptor (P41143 whole entry): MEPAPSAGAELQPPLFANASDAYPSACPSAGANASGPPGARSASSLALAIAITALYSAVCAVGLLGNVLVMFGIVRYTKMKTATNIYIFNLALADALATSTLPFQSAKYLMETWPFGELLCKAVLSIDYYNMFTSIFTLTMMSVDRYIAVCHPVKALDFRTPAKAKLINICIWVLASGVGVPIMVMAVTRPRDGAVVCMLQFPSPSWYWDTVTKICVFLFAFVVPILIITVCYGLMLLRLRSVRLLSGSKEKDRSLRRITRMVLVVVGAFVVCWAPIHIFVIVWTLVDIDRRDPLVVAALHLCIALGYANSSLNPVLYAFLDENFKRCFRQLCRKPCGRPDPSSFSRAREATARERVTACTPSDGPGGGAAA

Compound: OC(CCCCC(O)COc1ccc2c(c1)[C@@]13CCCC[C@H]1[C@@H](C2)N(CC1CCC1)CC3)COc1ccc2c(c1)[C@@]13CCCC[C@H]1[C@@H](C2)N(CC1CCC1)CC3 (stereo partly specified)
- Ratio Ki (Homo sapiens [1]): 23
- Ki [2]: 74 nM
- Ratio Ki (Homo sapiens [3]): 23
- Ki [4]: 3.3 nM
- Ki (Mu-type opioid receptor): 3.2 nM

Compound: CCCCCCCCCC(=O)Oc1ccc2c(c1)[C@@]13CCCC[C@H]1[C@@H](C2)N(CC1CCC1)CC3
- Ratio Ki (Homo sapiens [1]): 100
- Ki [2]: 20 nM
- Ratio Ki (Homo sapiens [3]): 100
- Ki [4]: 0.2 nM
- Ki (Mu-type opioid receptor): 0.21 nM

Compound: OC(COc1ccc2c(c1)[C@@]13CCCC[C@H]1[C@@H](C2)N(CC1CCC1)CC3)COc1ccc2c(c1)[C@@]13CCCC[C@H]1[C@@H](C2)N(CC1CCC1)CC3
- Ratio Ki (Homo sapiens [1]): 39
- Ki [2]: 37 nM
- Ratio Ki (Homo sapiens [3]): 39
- Ki [4]: 0.99 nM
- Ki (Mu-type opioid receptor): 0.95 nM

Compound: CCCCCCCCCCOc1ccc2c(c1)[C@@]13CCCC[C@H]1[C@@H](C2)N(CC1CCC1)CC3
- Ratio Ki (Homo sapiens [5]): 1.3
- Ki (Mu-type opioid receptor): 70 nM

Compound: OC(CCCCCCC(O)COc1ccc2c(c1)[C@@]13CCCC[C@H]1[C@@H](C2)N(CC1CCC1)CC3)COc1ccc2c(c1)[C@@]13CCCC[C@H]1[C@@H](C2)N(CC1CCC1)CC3 (stereo partly specified)
- Ratio Ki (Homo sapiens [5]): 1.7
- Ki [2]: 27 nM
- Ratio Ki (Homo sapiens [3]): 19
- Ki [4]: 1.4 nM
- Ki (Mu-type opioid receptor): 2.4 nM

Compound: OC(CCCC(O)COc1ccc2c(c1)[C@@]13CCCC[C@H]1[C@@H](C2)N(CC1CCC1)CC3)COc1ccc2c(c1)[C@@]13CCCC[C@H]1[C@@H](C2)N(CC1CCC1)CC3 (stereo partly specified)
- Ratio Ki (Homo sapiens [5]): 1.2
- Ki [2]: 160 nM
- Ratio Ki (Homo sapiens [3]): 16
- Ki [4]: 9.8 nM
- Ki (Mu-type opioid receptor): 12 nM

Compound: c1cc2c(cc1OCCCCOc1ccc3c(c1)[C@@]14CCCC[C@H]1[C@@H](C3)N(CC1CCC1)CC4)[C@@]13CCCC[C@H]1[C@@H](C2)N(CC1CCC1)CC3
- Ratio Ki (Homo sapiens [5]): 1.6
- Ratio Ki (Homo sapiens [3]): 40

Compound: OC(CCCCCC(O)COc1ccc2c(c1)[C@@]13CCCC[C@H]1[C@@H](C2)N(CC1CCC1)CC3)COc1ccc2c(c1)[C@@]13CCCC[C@H]1[C@@H](C2)N(CC1CCC1)CC3 (stereo partly specified)
- Ratio Ki (Homo sapiens [5]): 1.2
- Ki [2]: 99 nM
- Ratio Ki (Homo sapiens [3]): 25
- Ki [4]: 3.9 nM
- Ki (Mu-type opioid receptor): 4.8 nM

Compound: CCCCCCCCC(O)COc1ccc2c(c1)[C@@]13CCCC[C@H]1[C@@H](C2)N(CC1CCC1)CC3 (stereo partly specified)
- Ratio Ki (Homo sapiens [6]): 1.1
- Ratio Ki (Homo sapiens [1]): 7
- Ki [2]: 52 nM
- Ki [4]: 8.3 nM
- Ki (Mu-type opioid receptor): 7.4 nM

Compound: OC(COc1ccc(Cc2ccc(OCC(O)COc3ccc4c(c3)[C@@]35CCCC[C@H]3[C@@H](C4)N(CC3CCC3)CC5)cc2)cc1)COc1ccc2c(c1)[C@@]13CCCC[C@H]1[C@@H](C2)N(CC1CCC1)CC3 (stereo partly specified)
- Ratio Ki (Homo sapiens [6]): 1.4
- Ratio Ki (Homo sapiens [1]): 121
- Ki [2]: 29 nM
- Ki [4]: 0.34 nM
- Ki (Mu-type opioid receptor): 0.24 nM

Compound: c1cc2c(cc1OCCCCCCCCCCOc1ccc3c(c1)[C@@]14CCCC[C@H]1[C@@H](C3)N(CC1CCC1)CC4)[C@@]13CCCC[C@H]1[C@@H](C2)N(CC1CCC1)CC3
- Ratio Ki (Homo sapiens [6]): 1.8
- Ratio Ki (Homo sapiens [1]): 38

Compound: OC(CCC(O)COc1ccc2c(c1)[C@@]13CCCC[C@H]1[C@@H](C2)N(CC1CCC1)CC3)COc1ccc2c(c1)[C@@]13CCCC[C@H]1[C@@H](C2)N(CC1CCC1)CC3 (stereo partly specified)
- Ratio Ki (Homo sapiens [5]): 1.4
- Ki [2]: 420 nM
- Ratio Ki (Homo sapiens [3]): 35
- Ki [4]: 12 nM
- Ki (Mu-type opioid receptor): 17 nM

Compound: c1cc2c(cc1OCCCOc1ccc3c(c1)[C@@]14CCCC[C@H]1[C@@H](C3)N(CC1CCC1)CC4)[C@@]13CCCC[C@H]1[C@@H](C2)N(CC1CCC1)CC3
- Ratio Ki (Homo sapiens [5]): 1.1
- Ki [2]: 180 nM
- Ratio Ki (Homo sapiens [3]): 29
- Ki [4]: 6.2 nM
- Ki (Mu-type opioid receptor): 7.1 nM

Compound: c1cc2c(cc1OCC1CO1)[C@@]13CCCC[C@H]1[C@@H](C2)N(CC1CCC1)CC3 (stereo partly specified)
- Ratio Ki (Homo sapiens [6]): 5
- Ratio Ki (Homo sapiens [1]): 27
- Ki [2]: 200 nM
- Ki [4]: 36 nM
- Ki (Mu-type opioid receptor): 7.3 nM

Compound: OC(COc1ccccc1)COc1ccc2c(c1)[C@@]13CCCC[C@H]1[C@@H](C2)N(CC1CCC1)CC3 (stereo partly specified)
- Ratio Ki (Homo sapiens [6]): 13
- Ratio Ki (Homo sapiens [1]): 13
- Ki [2]: 86 nM
- Ki [4]: 22 nM
- Ki (Mu-type opioid receptor): 6.5 nM

Compound: OC(COc1ccc2c(c1)[C@@]13CCCC[C@H]1[C@@H](C2)N(CC1CCC1)CC3)CC(O)COc1ccc2c(c1)[C@@]13CCCC[C@H]1[C@@H](C2)N(CC1CCC1)CC3 (stereo partly specified)
- Ratio Ki (Homo sapiens [5]): 7
- Ki [2]: 33 nM
- Ratio Ki (Homo sapiens [3]): 194
- Ki [4]: 0.17 nM
- Ki (Mu-type opioid receptor): 1.2 nM
